Legend:
[1] = target: T1, α1L-adrenergic receptor (α1A-adrenergic receptor / CRELD1α complex) in α1L cells (Homo sapiens, UniProt P35348); assay: Whole-cell [3H]-silodosin binding in α1L cells (CHO-K1 coexpressing ADRA1A and CRELD1α); conditions: for sensitivity of receptors in α1L cells (in words): whole-cell competition binding
T1 construct: the coding region of the ADRA1A gene was subcloned into the EcoRI restriction enzyme site of the multicloning site A of the pIRES; expressed in transfected cells
T1 sequence (P35348 1-466): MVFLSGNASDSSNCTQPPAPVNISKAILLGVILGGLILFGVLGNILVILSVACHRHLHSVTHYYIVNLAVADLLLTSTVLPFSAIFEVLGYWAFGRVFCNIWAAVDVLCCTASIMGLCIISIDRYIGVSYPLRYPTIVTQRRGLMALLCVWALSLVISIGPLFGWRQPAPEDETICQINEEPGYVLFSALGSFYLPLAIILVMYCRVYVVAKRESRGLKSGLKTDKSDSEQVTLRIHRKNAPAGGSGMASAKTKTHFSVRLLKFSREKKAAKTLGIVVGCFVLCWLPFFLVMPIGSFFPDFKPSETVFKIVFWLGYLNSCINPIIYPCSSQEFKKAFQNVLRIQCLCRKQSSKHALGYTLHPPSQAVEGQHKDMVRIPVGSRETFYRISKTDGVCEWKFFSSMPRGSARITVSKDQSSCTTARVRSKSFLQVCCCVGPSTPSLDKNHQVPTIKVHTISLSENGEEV
T1 sequence (Q96HD1 30-420 partner): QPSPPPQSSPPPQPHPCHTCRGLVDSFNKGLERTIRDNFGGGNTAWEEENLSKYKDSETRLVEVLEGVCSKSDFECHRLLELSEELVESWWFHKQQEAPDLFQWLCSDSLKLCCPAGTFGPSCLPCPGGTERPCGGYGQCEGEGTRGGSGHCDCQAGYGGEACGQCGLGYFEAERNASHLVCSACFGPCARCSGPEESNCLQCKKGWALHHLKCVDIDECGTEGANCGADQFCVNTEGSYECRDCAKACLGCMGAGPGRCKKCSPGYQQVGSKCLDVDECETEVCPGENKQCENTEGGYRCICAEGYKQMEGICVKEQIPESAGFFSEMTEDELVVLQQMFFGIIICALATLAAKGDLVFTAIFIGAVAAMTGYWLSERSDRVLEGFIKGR
Protocol: (§1) The vector was amplified/purified in a conventional method, and then transfected into CHO-K1 cells, which are cells of Chinese Hamster ovarian origin, with Lipofectamine 2000 (Invitrogen Corporation) according to the manufacturer's protocol. Two days after the transfection, 1200 μg/ml of the antibiotic Geneticin (G418) were added to the DMEM culture medium. […] The G418-resistant cells were diluted, suspended, and injected dividedly into a 96-well plate so that an average of 0.5 cells was put in per well, and a single colony was chosen. This operation was repeated three times, whereby a stable clone (au cells) having coexpressed the ADRA1A gene and the CREDL1α gene was produced. Further, as control groups, the cells (α1A cells) having stably expressed only the ADRA1A gene and the cells (CREDL1α cells) having stably expressed only the CREDL1α gene were produced.
The stable clone was studied by a pharmacological binding method with [^3H]-silodosin, which is a radioligand. An experiment was conducted using a whole-cell binding method. That is, cells were scattered two to three days before the experiment so that they are semi-confluent, washed twice with ice-cold PBS, and then scraped by a scraper. The cells thus collected were suspended again in a Krebs-HEPES solution, and then incubated at 4° C. for four hours together with [^3H]-silodosin and another drug as needed. Thereafter, the cells were filtered/washed by a Whatmann GC/F filter pretreated with polyethylene imine, and the radioactivity was measured by a liquid scintillation counter. The non-specific binding was evaluated as binding in the presence of 30 μM phenotolamine.
The binding of [^3H]-silodosin of various concentrations (30 to 1000 pM) to the α1L cells was examined (FIG. 1).
Silodosin is known to bind selectively to the α1A- and α1L-subtypes with a high affinity. […] The α1A cells were used as control cell line. [^3H]-silodosin is known as a selective antagonist of α1A- and α1L-subtypes both.

α1B-adrenergic receptor = target: T2, α1B-adrenergic receptor (Homo sapiens, UniProt P35368); conditions: α1B subtype; cited from earlier work
T2 sequence (P35368 1-520): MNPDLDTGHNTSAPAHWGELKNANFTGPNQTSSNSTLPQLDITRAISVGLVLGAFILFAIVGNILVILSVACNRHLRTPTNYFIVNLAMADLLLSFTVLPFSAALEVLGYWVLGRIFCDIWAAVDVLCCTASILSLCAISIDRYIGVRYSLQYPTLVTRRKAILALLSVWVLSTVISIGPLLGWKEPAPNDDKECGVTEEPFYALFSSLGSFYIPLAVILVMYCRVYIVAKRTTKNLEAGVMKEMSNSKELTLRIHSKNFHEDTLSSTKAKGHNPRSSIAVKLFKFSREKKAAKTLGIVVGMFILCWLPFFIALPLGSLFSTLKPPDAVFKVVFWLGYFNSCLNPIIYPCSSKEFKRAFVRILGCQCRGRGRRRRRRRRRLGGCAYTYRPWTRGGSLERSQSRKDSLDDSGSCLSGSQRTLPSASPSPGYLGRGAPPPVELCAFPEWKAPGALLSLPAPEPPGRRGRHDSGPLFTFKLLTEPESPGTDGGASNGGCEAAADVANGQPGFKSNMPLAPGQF

[2] = target: T3, α1A-adrenergic receptor in α1A cells (Homo sapiens, UniProt P35348); assay: Whole-cell [3H]-silodosin binding in α1A cells (CHO-K1 expressing only ADRA1A)
T3 construct: the coding region of the ADRA1A gene was subcloned into the EcoRI restriction enzyme site of the multicloning site A of the pIRES; expressed in transfected cells
T3 sequence (P35348 1-466): T1 sequence (P35348 1-466)
Protocol: as §1
The stable clone was studied by a pharmacological binding method with [^3H]-silodosin, which is a radioligand. An experiment was conducted using a whole-cell binding method. […] Thereafter, the cells were filtered/washed by a Whatmann GC/F filter pretreated with polyethylene imine, and the radioactivity was measured by a liquid scintillation counter. The non-specific binding was evaluated as binding in the presence of 30 μM phenotolamine. […]

[3] = target: T4, α1L-adrenergic receptors in human prostate tissue segments (Homo sapiens, UniProt P35348); assay: [3H]-silodosin binding in human prostate tissue segments
T4 construct: from tissue; host or cells: human prostate tissue segments
T4 sequence (P35348 1-466): T1 sequence (P35348 1-466)

α1A-adrenergic receptor = target: T5, α1A-adrenergic receptor (Homo sapiens, UniProt P35348); conditions: α1A subtype; cited from earlier work
T5 sequence (P35348 1-466): T1 sequence (P35348 1-466)

α1L-adrenergic receptor = conditions: α1L subtype; cited from earlier work
α1D-adrenergic receptor = target: T6, α1D-adrenergic receptor (Homo sapiens, UniProt P25100); conditions: α1D subtype; cited from earlier work
T6 sequence (P25100 1-572): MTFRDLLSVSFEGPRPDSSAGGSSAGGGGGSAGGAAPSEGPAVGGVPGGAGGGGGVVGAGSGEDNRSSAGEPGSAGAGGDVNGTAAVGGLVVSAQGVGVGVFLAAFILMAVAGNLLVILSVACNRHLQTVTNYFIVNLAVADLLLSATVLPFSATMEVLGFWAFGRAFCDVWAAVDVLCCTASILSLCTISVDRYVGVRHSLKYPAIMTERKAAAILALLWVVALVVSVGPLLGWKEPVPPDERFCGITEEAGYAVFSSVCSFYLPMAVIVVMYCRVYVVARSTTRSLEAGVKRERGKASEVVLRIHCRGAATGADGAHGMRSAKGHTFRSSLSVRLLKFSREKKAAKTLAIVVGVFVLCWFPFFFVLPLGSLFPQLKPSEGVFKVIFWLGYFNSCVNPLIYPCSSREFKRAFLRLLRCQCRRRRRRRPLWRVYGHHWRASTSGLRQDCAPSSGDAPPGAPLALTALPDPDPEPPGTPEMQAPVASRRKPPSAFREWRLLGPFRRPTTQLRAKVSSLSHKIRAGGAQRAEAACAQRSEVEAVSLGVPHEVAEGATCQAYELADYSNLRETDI

Row | sensitivity of receptors in α1L cells (in words) ([1]; α1L cells) | Compound | Affinity (pKb) (α1B-adrenergic receptor) | Ki [1] [nM] | Ki [2] [nM] | Ki [3] [nM] | Affinity (pKb) (α1A-adrenergic receptor) | Affinity (pKb) (α1L-adrenergic receptor) | Affinity (pKb) (α1D-adrenergic receptor) | maximum binding amount (Bmax) ([1]; α1L cells, saturation binding, 30 to 1000 pM) [fmol/mg protein] | Kd ([1]; α1L cells, saturation binding, whole-cell method) [nM] | Kd ([2]; α1A cells, whole-cell method, read-out: pKD (dissociation equilibrium constant from saturation binding curve) (converted)) [nM] | Kd ([3]; human prostate tissue segments, read-out: pKD (dissociation equilibrium constant from saturation binding curve) (converted)) [nM]
1 | only low sensitivity | COc1ccccc1N1CCN(CCN2C(=O)CC3(CCCC3)CC2=O)CC1.Cl.Cl [BMY 7378, 8-[2-[4-(2-methoxyphenyl)-1-piperazinyl]ethyl]8-azaspiro[4,5]decane7,9-dione dihydrochloride] | 7.4 | – | – | – | – | – | – | – | – | – | –
2 | – | C[C@H](Cc1cc2c(c(C(N)=O)c1)N(CCCO)CC2)NCCOc1ccccc1OCC(F)(F)F [[^3H]-silodosin] | – | – | – | – | – | – | – | 134 | 0.843 | 0.2 | 0.316
3 | – | C[C@H](Cc1cc2c(c(C(N)=O)c1)N(CCCO)CC2)NCCOc1ccccc1OCC(F)(F)F [silodosin] | 8.1 | – | – | – | 10.7-9.5 | 10.7-9.5 | 8.6 | – | – | – | –
4 | high sensitivity | CCOc1ccccc1OCCN[C@H](C)Cc1ccc(OC)c(S(N)(=O)=O)c1 [tamsulosin] | 9.3 | – | – | – | – | – | 9.9 | – | – | – | –

Row | Compound | sensitivity of receptors in α1L cells (in words) ([1]; α1L cells) | Affinity (pKb) (α1B-adrenergic receptor) | Ki [1] [nM] | Ki [2] [nM] | Ki [3] [nM] | Affinity (pKb) (α1A-adrenergic receptor) | Affinity (pKb) (α1L-adrenergic receptor) | Affinity (pKb) (α1D-adrenergic receptor) | maximum binding amount (Bmax) ([1]; α1L cells, saturation binding, 30 to 1000 pM) [fmol/mg protein] | Kd ([1]; α1L cells, saturation binding, whole-cell method) [nM] | Kd ([2]; α1A cells, whole-cell method, read-out: pKD (dissociation equilibrium constant from saturation binding curve) (converted)) [nM] | Kd ([3]; human prostate tissue segments, read-out: pKD (dissociation equilibrium constant from saturation binding curve) (converted)) [nM]
5 | CC(C)(Cc1c[nH]c2ccc(Cl)cc12)NCCOc1ccccc1OCC1CC1.Cl [RS-17053, N-[2-(2-cyclopropylmethoxyphenoxy)ethyl]-5-chloro-α,α-dimethyl-1H-indole-3-ethanamine hydrochloride] | low in sensitivity | 7.8 | > 1000 | 1.58 | 251 | 9.1-8.4 | 6.3 | 7.8 | – | – | – | –
